Reference: patent US4443436A, “C-20-Modified macrolide derivatives of the macrolide antibiotics tylosin, desmycosin, macrocin, and lactenocin” (Eli Lilly and Company, priority 1982, dated 1984)
Converted amounts (≈) assume the structure as drawn. Like-named read-outs stand apart in the source and are kept apart here.

Columns and labels:
[1] = system: Staphylococcus aureus X1.1; test: MIC, standard agar-dilution assay, Staphylococcus aureus X1.1; assay type: cell-based; details: Staphylococcus aureus, X1.1
[2] = system: Staphylococcus aureus V41; test: MIC, standard agar-dilution assay, Staphylococcus aureus V41; assay type: cell-based; details: Staphylococcus aureus, V41
[3] = system: Staphylococcus aureus X400; test: MIC, standard agar-dilution assay, Staphylococcus aureus X400; assay type: cell-based
[4] = system: Staphylococcus aureus S13E; test: MIC, standard agar-dilution assay, Staphylococcus aureus S13E; assay type: cell-based; details: Staphylococcus aureus, S13E
[5] = system: Staphylococcus epidermidis EPI1; test: MIC, standard agar-dilution assay, Staphylococcus epidermidis EPI1; assay type: cell-based
[6] = system: Staphylococcus epidermidis EPI2; test: MIC, standard agar-dilution assay, Staphylococcus epidermidis EPI2; assay type: cell-based; details: Staphylococcus epidermidis EPI2; agar dilution; read-out: MIC
[7] = system: Streptococcus pyogenes C203; test: MIC, standard agar-dilution assay, Streptococcus pyogenes C203; assay type: cell-based; details: Streptococcus pyogenes, C203
[8] = system: Streptococcus pneumoniae Park I; test: microbe, parasite or virus in culture; assay type: cell-based
[9] = system: Streptococcus Group D X66; test: MIC, standard agar-dilution assay, Streptococcus Group D X66; assay type: cell-based
Streptococcus Group 9960 = test: MIC, standard agar-dilution assay, Streptococcus Group 9960; assay type: cell-based; details: GROUP9960
[10] = system: Haemophilus influenzae Holt; test: MIC, standard agar-dilution assay, Haemophilus influenzae Holt; assay type: cell-based
[11] = system: Haemophilus influenzae R252; test: MIC, standard agar-dilution assay, Haemophilus influenzae R252; assay type: cell-based
Staphylococcus aureus = test: MIC, broth-dilution microtiter test, Staphylococcus aureus; assay type: cell-based; details: broth-dilution microtiter, read-out: MIC
Excerpt: (§1) The MIC's in Table X were obtained using conventional broth-dilution microtiter tests.

Streptococcus bovis 80 = test: MIC, broth-dilution microtiter test, Streptococcus bovis 80; assay type: cell-based; details: Streptococcus equinus
Excerpt: as §1

[12] = system: Pasteurella multocida 17E; test: MIC, broth-dilution microtiter test, Pasteurella multocida 17E; assay type: cell-based
Excerpt: as §1

[13] = system: Pasteurella multocida 60A; test: MIC, broth-dilution microtiter test, Pasteurella multocida 60A; assay type: cell-based
Excerpt: as §1

[14] = system: Pasteurella hemolytica 22C; test: MIC, broth-dilution microtiter test, Pasteurella hemolytica 22C; assay type: cell-based
Excerpt: as §1

Mycoplasma gallisepticum = test: MIC, broth-dilution microtiter test, Mycoplasma gallisepticum; assay type: cell-based; details: Mycoplasmoides gallisepticum; Mycoplasma gallisepticum; broth-dilution microtiter; read-out: MIC
Excerpt: as §1

Mycoplasma synoviae = test: MIC, broth-dilution microtiter test, Mycoplasma synoviae; assay type: cell-based; details: Mycoplasmopsis synoviae
Excerpt: as §1

Mycoplasma hyorhinis = test: MIC, broth-dilution microtiter test, Mycoplasma hyorhinis; assay type: cell-based
Excerpt: as §1

Mycoplasma hyopneumoniae = test: MIC, broth-dilution microtiter test, Mycoplasma hyopneumoniae; assay type: cell-based; details: Mesomycoplasma hyopneumoniae
Excerpt: as §1

[15] = system: Streptococcus pyogenes C203; test: In vivo protection of mice experimentally infected with S. pyogenes C203; details: Streptococcus pyogenes, mice, doses given 1 and 4 hours post-infection
Procedure: The C-20 modified derivatives of this invention have shown in vivo antimicrobial activity against experimentally-induced infections in laboratory animals. When two doses of test compound were administered to mice experimentally infected with S. pyogenes C203, the activity observed was measured as an ED50 value [effective dose in mg/kg to protect 50% of the test animals: see Warren Wick, et al., J. Bacteriol. 81, 233-235 (1961)].

Pasteurella multocida = test: Oral (gavage) treatment of Pasteurella multocida-infected chicks; assay type: in vivo, one-day-old chicks
Procedure: Many of the C-20 modified derivatives of this invention have also shown in vivo antibacterial activity against infections induced by gram-negative bacteria. Tables XII and XIII summarize the results of tests in which illustrative compounds were evaluated against Pasteurella infection in one-day-old chicks. The compounds were administered parenterally or orally after challenge of the chicks with Pasteurella multocida (0.1 ml of a 10^-4 dilution of a twenty-hour tryptose broth culture of an avian P. multocida given subcutaneously). In these tests, unless indicated otherwise, all non-medicated infected chicks died within 24 hours of Pasteurella challenge. In the tests summarized in Table XII the compounds were administered by subcutaneous injection at a dosage of 30 mg/kg, 1 and 4 hours post-challenge of the chicks with P. multocida. In the test summarized in Table XIII the compounds were administered by gavage at 1 and 5 hours post-challenge of the chicks with P. multocida.

[16] = Streptococcus bovis 80, broth-dilution microtiter, read-out: MIC
[17] = Pasteurella multocida 60A, avian isolate, broth-dilution microtiter, read-out: MIC
[18] = Pasteurella hemolytica 22C, broth-dilution microtiter, read-out: MIC
[19] = Mycoplasma hyopneumoniae, broth-dilution microtiter, read-out: MIC
[20] = C203, sc, subcutaneous, read-out: ED50, Subcutaneous
[21] = C203, oral, read-out: ED50, Oral
[22] = Staphylococcus epidermidis, EPI1
[23] = Streptococcus Group 9960, agar dilution, read-out: MIC
[24] = Mycoplasma hyorhinis, broth-dilution microtiter, read-out: MIC

SMILES | MIC [1] | MIC [2] | MIC [4] | MIC [6] | MIC [7] | MIC ([8]; Streptococcus pneumoniae) | MIC [9] | MIC (Staphylococcus aureus) | MIC (Streptococcus bovis 80; [16]) | MIC [13, 17] | MIC [14, 18] | MIC (Mycoplasma gallisepticum) | MIC (Mycoplasma synoviae) | MIC (Mycoplasma hyorhinis; Mycoplasma) | MIC (Mycoplasma hyopneumoniae; [19]) | ED50 [15, 20] | ED50 [15, 21] | MIC ([3]; Staphylococcus aureus, X400) | MIC [5, 22] | MIC ([12]; Pasteurella multocida, 17E) | further results
CCC1OC(=O)CC(O)C(C)C(OC2OC(C)C(O)C(N(C)C)C2O)C(CCF)CC(C)C(=O)C=CC(C)=CC1COC1OC(C)C(O)C(OC)C1OC (stereo not drawn) [Compound 22, 20-DH-DO-20-Fluorodesmycosin] | 0.25 µg/mL (≈ 0.322 µM) | 0.25 µg/mL (≈ 0.322 µM) | 0.25 µg/mL (≈ 0.322 µM) | 0.12 µg/mL (≈ 0.155 µM) | 0.25 µg/mL (≈ 0.322 µM) | 2 µg/mL (≈ 2.58 µM) | 8 µg/mL (≈ 10.3 µM) | 3.12 µg/mL (≈ 4.02 µM) | 1.56 µg/mL (≈ 2.01 µM) | 25 µg/mL (≈ 32.2 µM) | > 50 µg/mL | 12.5 µg/mL (≈ 16.1 µM) | 50 µg/mL (≈ 64.4 µM) | 50 µg/mL (≈ 64.4 µM) | > 25 µg/mL | 5 mg/kg | 11 mg/kg | – | – | – | MIC ([3]; Staphylococcus aureus X400, methicillin-resistant strain, agar dilution, read-out: MIC): 0.5 µg/mL (≈ 0.644 µM); MIC ([5]; Staphylococcus epidermidis EPI1, agar dilution, read-out: MIC): 0.12 µg/mL (≈ 0.155 µM); MIC (Streptococcus Group 9960): 8 µg/mL (≈ 10.3 µM); MIC ([10]; Haemophilus influenzae Holt, ampicillin-sensitive strain, read-out: MIC): 16 µg/mL (≈ 20.6 µM); MIC ([11]; Haemophilus influenzae R252, ampicillin-resistant strain, read-out: MIC): 16 µg/mL (≈ 20.6 µM); MIC ([12]; Pasteurella multocida 17E, bovine isolate, broth-dilution microtiter, read-out: MIC): 25 µg/mL (≈ 32.2 µM); Number of Deaths/Number tested (Pasteurella multocida; 0.5 g/gal equivalent): 6/10; Number of Deaths/Number tested (Pasteurella multocida; 1.0 g/gal equivalent): 0/10; Number of Deaths/Number tested (Pasteurella multocida; 2.0 g/gal equivalent): 1/10
CCC1OC(=O)CC(O)C(C)C(OC2OC(C)C(O)C(N(C)C)C2O)C(CCSc2ccccc2)CC(C)C(=O)C=CC(C)=CC1COC1OC(C)C(O)C(OC)C1OC (stereo not drawn) [Compound 23, 20-DH-DO-20-(phenylthio)desmycosin] | 0.25 µg/mL (≈ 0.289 µM) | 0.25 µg/mL (≈ 0.289 µM) | 0.25 µg/mL (≈ 0.289 µM) | 0.12 µg/mL (≈ 0.139 µM) | 0.25 µg/mL (≈ 0.289 µM) | – | – | 0.19 µg/mL (≈ 0.219 µM) | 6.25 µg/mL (≈ 7.22 µM) | – | 25 µg/mL (≈ 28.9 µM) | 0.09 µg/mL (≈ 0.104 µM) | – | – | > 25 µg/mL | 10 mg/kg | 17 mg/kg | 0.25 µg/mL (≈ 0.289 µM) | 0.25 µg/mL (≈ 0.289 µM) | 12.5 µg/mL (≈ 14.4 µM) | MIC ([8]; Streptococcus pneumoniae Park I, agar dilution, read-out: MIC): 2 µg/mL (≈ 2.31 µM); MIC ([9]; Streptococcus Group D X66, agar dilution, read-out: MIC): 8 µg/mL (≈ 9.24 µM); MIC (Streptococcus Group 9960; [23]): 16 µg/mL (≈ 18.5 µM); MIC ([13]; Pasteurella multocida, 60A): 12.5 µg/mL (≈ 14.4 µM); MIC (Mycoplasma synoviae; Mycoplasma synoviae, broth-dilution microtiter, read-out: MIC): 6.25 µg/mL (≈ 7.22 µM); MIC (Mycoplasma hyorhinis; [24]): > 50 µg/mL; Number of Deaths/Number tested (Pasteurella multocida; 0.5 g/gal equivalent): 8/10; Number of Deaths/Number tested (Pasteurella multocida; 1.0 g/gal equivalent): 10/10
CCC1OC(=O)CC(O)C(C)C(OC2OC(C)C(O)C(N(C)C)C2O)C(CCOc2ccc([N+](=O)[O-])cc2)CC(C)C(=O)C=CC(C)=CC1COC1OC(C)C(O)C(OC)C1OC (stereo not drawn) [Compound 34, 20-DH-20-O-(p-Nitrophenyl)desmycosin] | 0.5 µg/mL (≈ 0.559 µM) | 0.5 µg/mL (≈ 0.559 µM) | 0.5 µg/mL (≈ 0.559 µM) | 0.12 µg/mL (≈ 0.134 µM) | 1 µg/mL (≈ 1.12 µM) | 1 µg/mL (≈ 1.12 µM) | 4 µg/mL (≈ 4.47 µM) | 0.39 µg/mL (≈ 0.436 µM) | – | 25 µg/mL (≈ 27.9 µM) | 25 µg/mL (≈ 27.9 µM) | 0.39 µg/mL (≈ 0.436 µM) | 0.78 µg/mL (≈ 0.871 µM) | 50 µg/mL (≈ 55.9 µM) | – | 1.1 mg/kg | 5 mg/kg | 1 µg/mL (≈ 1.12 µM) | 0.5 µg/mL (≈ 0.559 µM) | 12.5 µg/mL (≈ 14 µM) | MIC (Streptococcus Group 9960; [23]): 8 µg/mL (≈ 8.94 µM); MIC ([10]; Haemophilus influenzae): 16 µg/mL (≈ 17.9 µM); MIC ([11]; Haemophilus influenzae, R252): 16 µg/mL (≈ 17.9 µM); MIC (Streptococcus bovis 80; 80): 1.56 µg/mL (≈ 1.74 µM); MIC (Mycoplasma hyopneumoniae): 12.5 µg/mL (≈ 14 µM); Number of Deaths/Number tested (Pasteurella multocida; 0.5 g/gal equivalent): 7/10; Number of Deaths/Number tested (Pasteurella multocida; 1.0 g/gal equivalent): 9/10
CCC1OC(=O)CC(O)C(C)C(OC2OC(C)C(O)C(N(C)C)C2O)C(CCOc2ccc(OC)cc2)CC(C)C(=O)C=CC(C)=CC1COC1OC(C)C(O)C(OC)C1OC (stereo not drawn) [Compound 35, 20-DH-20-O-(p-Methoxyphenyl)desmycosin] | 0.25 µg/mL (≈ 0.284 µM) | 0.25 µg/mL (≈ 0.284 µM) | 0.25 µg/mL (≈ 0.284 µM) | 0.12 µg/mL (≈ 0.136 µM) | 1 µg/mL (≈ 1.14 µM) | 1 µg/mL (≈ 1.14 µM) | 4 µg/mL (≈ 4.55 µM) | 0.39 µg/mL (≈ 0.443 µM) | – | – | 25 µg/mL (≈ 28.4 µM) | 0.39 µg/mL (≈ 0.443 µM) | 0.78 µg/mL (≈ 0.886 µM) | – | – | 1.6 mg/kg | 11 mg/kg | 0.25 µg/mL (≈ 0.284 µM) | 0.25 µg/mL (≈ 0.284 µM) | 12.5 µg/mL (≈ 14.2 µM) | MIC (Streptococcus Group 9960; [23]): 8 µg/mL (≈ 9.09 µM); MIC ([11]; Haemophilus influenzae, R252): 16 µg/mL (≈ 18.2 µM); MIC (Streptococcus bovis 80; 80): 1.56 µg/mL (≈ 1.77 µM); MIC ([13]; Pasteurella multocida, 60A): 12.5 µg/mL (≈ 14.2 µM); MIC (Mycoplasma hyorhinis; [24]): > 50 µg/mL; MIC (Mycoplasma hyopneumoniae): 6.25 µg/mL (≈ 7.1 µM); Number of Deaths/Number tested (Pasteurella multocida; 1.5 g/gal equivalent): 1/10; Number of Deaths/Number tested (Pasteurella multocida; 2.0 g/gal equivalent): 4/10
CCC1OC(=O)CC(O)C(C)C(OC2OC(C)C(O)C(N(C)C)C2O)C(CCOc2ccc(C(=O)c3ccccc3)cc2)CC(C)C(=O)C=CC(C)=CC1COC1OC(C)C(O)C(OC)C1OC (stereo not drawn) [Compound 37, 20-DH-20-O-(p-Benzoylphenyl)desmycosin] | 0.25 µg/mL (≈ 0.262 µM) | 0.25 µg/mL (≈ 0.262 µM) | 0.25 µg/mL (≈ 0.262 µM) | 0.12 µg/mL (≈ 0.126 µM) | – | – | 0.25 µg/mL (≈ 0.262 µM) | 0.19 µg/mL (≈ 0.199 µM) | 0.19 µg/mL (≈ 0.199 µM) | 25 µg/mL (≈ 26.2 µM) | – | 0.19 µg/mL (≈ 0.199 µM) | 1.56 µg/mL (≈ 1.63 µM) | 0.78 µg/mL (≈ 0.817 µM) | 0.19 µg/mL (≈ 0.199 µM) | 7.2 mg/kg | 18 mg/kg | 0.25 µg/mL (≈ 0.262 µM) | 0.25 µg/mL (≈ 0.262 µM) | 12.5 µg/mL (≈ 13.1 µM) | MIC (Streptococcus Group 9960): 0.5 µg/mL (≈ 0.524 µM); MIC ([10]; Haemophilus influenzae): 16 µg/mL (≈ 16.8 µM); MIC ([11]; Haemophilus influenzae, R252): 16 µg/mL (≈ 16.8 µM); MIC ([14]; Pasteurella, 22C): 12.5 µg/mL (≈ 13.1 µM); Number of Deaths/Number tested (Pasteurella multocida; 1.5 g/gal equivalent): 10/10
